ChEMBL document CHEMBL5209588, “Membrane potential based assay for SLC6A9 using HEK-293 SLC6A9 OE cells” (2022)

Target: T1, Sodium- and chloride-dependent glycine transporter 1 (Homo sapiens, UniProt P48067)
T1 sequence (P48067 whole entry): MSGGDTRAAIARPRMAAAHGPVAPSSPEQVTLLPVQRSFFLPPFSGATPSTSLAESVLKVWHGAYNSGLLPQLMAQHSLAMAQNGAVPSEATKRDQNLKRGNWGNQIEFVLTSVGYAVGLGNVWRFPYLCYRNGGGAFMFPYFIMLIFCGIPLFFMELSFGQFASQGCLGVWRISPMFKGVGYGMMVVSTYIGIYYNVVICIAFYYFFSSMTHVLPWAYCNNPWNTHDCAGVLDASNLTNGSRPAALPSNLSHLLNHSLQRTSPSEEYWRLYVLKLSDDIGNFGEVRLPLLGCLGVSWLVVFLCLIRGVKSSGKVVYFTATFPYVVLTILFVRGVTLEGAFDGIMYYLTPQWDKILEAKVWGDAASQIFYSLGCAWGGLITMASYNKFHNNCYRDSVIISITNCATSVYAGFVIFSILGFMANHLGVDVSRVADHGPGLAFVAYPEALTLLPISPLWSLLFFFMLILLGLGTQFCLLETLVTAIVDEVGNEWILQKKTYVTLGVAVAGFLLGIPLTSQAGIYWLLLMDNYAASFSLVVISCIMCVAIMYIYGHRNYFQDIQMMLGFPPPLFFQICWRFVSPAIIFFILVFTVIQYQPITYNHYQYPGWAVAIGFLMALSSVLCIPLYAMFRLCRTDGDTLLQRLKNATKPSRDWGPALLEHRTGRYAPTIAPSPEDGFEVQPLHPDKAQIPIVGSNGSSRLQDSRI
Description: Substrate uptake and inhibition of the Glycine Transporter-1 (GlyT1, SLC6A9) as assessed by the fluorescent FLIPR membrane potential dye in HEK-293 JumpIN-SLC6A9 cells (PubChem AID: 1794809)

EC50: 106 µM
SMILES: NCC(=O)O [GLYCINE]
